The test system of test [1] is H1703 cells. Nature of the test: Total glutathione / GSSG content after JS-K treatment. The test is classed as cell-based, human. The note with it: JS-K 1 μM, 1 h. The method, then:
(§1) H1703 or H1944 cells are plated in 6-well plates at 6×10^5 per well. Cells are treated with JS-K for 1 h at 1 μM (H1703) or 10 μM (H1944). After treatment, cells are washed with PBS, scraped into PBS and collected by centrifugation at 800 g for 10 min. The pellets are resuspended in 80 μL of 10 mM HCl and lysed by two successive rounds of freeze and thawing. Twenty μL of a 5% 5-sulfosalicylic acid solution is added to the lysate. The precipitate is removed by centrifugation at 8,000 g for 10 min, and the supernatant is analyzed for total glutathione content using total glutathione quantification kit (Dojindo, Rockville, Md.) according to the manufacturer's protocol. To measure GSSG concentration, cells are treated and lysed in accordance with the procedure above. The lysate is then neutralized with 0.1 M NaOH and treated with 4-vinylpyridine at a final concentration of 50 mM for 30 min.

The test system of test [2] is H1944 cells. The test is described as above. The class given is cell-based, human. As to conditions: JS-K 10 μM, 1 h. The method, then:
as §1

Test [3] concerns H1703 cells. The experiment in a line: H1703 xenograft in athymic NCr-nu/nu mice, JS-K (Example 3). The test is classed as in vivo. As to conditions: 6 μmol/kg i.v., three times a week for three weeks. The method, then: H1944 or H1703 cells are injected at 5×10^6 s.c. into a flank of 7-week-old female athymic NCr-nu/nu mice (Charles River, Wilmington, Mass.). The drug injections are initiated when the tumors reached 2×2×2 mm (typically 3-4 weeks). JS-K is formulated in Pluronic P123 (P123) (BASF, Florham Park, N.J.) micelles. Animals are treated three times a week for three weeks with i.v. tail vein injections of either vehicle (2.25% P123 in PBS) or JS-K (6 μmol/kg in the vehicle). Tumors are measured using a caliper twice a week, and the tumor volumes are calculated using a formula for ellipsoid volume, π/6×L×W×H (Tomayko and Reynolds, 1989). The non-parametric Mann-Whitney test is utilized for statistical comparisons of tumor volumes at each time point. Body weights are taken before each drug injection. Animals are sacrificed 2 h after the last drug injection. Blood is collected by cardiac puncture under isoflurane anesthesia, for testing for cytokines. Cytokines in serum are measured using a mouse Th1/2 multiplex assay (Meso Scale Discovery, Gaithersburg, Md.), according to the manufacturer's protocol. There were 9-13 mice/group at termination.

For the compound `CCOC(=O)N1CCN(/[N+]([O-])=N/Oc2ccc([N+](=O)[O-])cc2[N+](=O)[O-])CC1` [Compound 1], in test [1], the “GSH μmol/mg protein” value is on record as 1.27 μmol/mg protein and the “GSSG μmol/mg protein” value came to 0.042 μmol/mg protein. Moreover, in test [2], the “GSH μmol/mg protein” value is 0.13 μmol/mg protein and the “GSSG μmol/mg protein” value was 0.014 μmol/mg protein. Besides, the “growth of xenografted tumor cells vs vehicle” value in test [3] is “significantly reduces growth”.

The record behind these values is patent US9205091B2, “Diazeniumdiolated compounds, pharmaceutical compositions, and method of treating cancer” (The United States of America, as represented by the …, priority 2009, dated 2015).
